The numbers were not newly measured in article PMC10376691, “Inhibition of Acetylcholinesterase and Amyloid-β Aggregation by Piceatannol and Analogs: Assessing In Vitro and In Vivo Impact on a Murine Model of Scopolamine-Induced Memory Impairment” (Antioxidants, 2023), which cites them from elsewhere.

The test system of the series is scopolamine-induced mice with cognitive impairment. The following applies: one-month pre-treatment via cannula into the third ventricle, total 65 ng/month/head; cited from earlier work.

Turning to `Oc1ccc([C@H]2c3c(O)cc(O)cc3[C@H]3c4c(cc(O)cc4[C@@H]2O)O[C@@H]3c2ccc(O)cc2)cc1` [ampelopsin A], the “learning behavior, passive avoidance test and novel object recognition” value is “clear restoration of learning behavior”.
